We go through five molecules from patent publication US9388147B2 (Receptos, Inc., priority 2009, dated 2016).

One data set deals with S1P1/EDG1 (Homo sapiens, UniProt P21453). The data set can be described thus: S1P1 CRE-bla CHOK1 reporter assay, inhibition of Forskolin induced cAMP. In kind it is cell-based. In outline:
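Read-out is a FRET β-lactamase substrate (2 h, room temperature) after 4 h, 37 °C compound treatment under 2 μM Forskolin in stable S1P1-transfected CRE-bla CHO-K1 cells. Ten-point curves; non-linear regression gives EC50 for inhibition of Forskolin-stimulated cAMP.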
On the technique in general: Reporter assays use an easily measured gene product as a stand-in for the process of interest.

For another data set, the target named is T1, S1P2 (Homo sapiens, UniProt O95136).
T1 construct: expressed in transfected cells; host or cells: CRE-bla CHOK1
Briefly: Specificity over other S1P receptors: S1P2 CRE-bla CHOK1 reporter assay. It counts as cell-based. The conditions noted are these: S1P2 CRE-bla CHOK1, without Forskolin; read-out: S1P2 agonist value (EC50).

The target of another data set is T2, S1P4 (Homo sapiens, UniProt O95977).
T2 construct: Tango fusion (own knowledge: protease cleavage site plus GAL4-VP16 transcription factor at the receptor's C-terminus); host or cells: U2OS (Tango -bla)
T2 sequence (O95977 1-384): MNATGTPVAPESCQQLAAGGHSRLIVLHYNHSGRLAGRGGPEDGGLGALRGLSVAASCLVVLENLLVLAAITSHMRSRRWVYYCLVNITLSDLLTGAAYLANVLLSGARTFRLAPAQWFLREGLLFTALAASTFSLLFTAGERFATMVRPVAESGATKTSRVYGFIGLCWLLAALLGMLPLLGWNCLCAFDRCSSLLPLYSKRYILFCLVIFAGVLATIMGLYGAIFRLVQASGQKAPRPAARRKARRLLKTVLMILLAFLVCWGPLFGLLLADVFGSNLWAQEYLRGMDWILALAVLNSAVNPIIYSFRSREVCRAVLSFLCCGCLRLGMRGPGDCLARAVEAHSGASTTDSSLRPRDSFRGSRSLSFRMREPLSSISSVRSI
The data set can be described thus: Specificity over other S1P receptors: S1P4-bla TANGO U2OS assay. It counts as cell-based. To be noted: read-out: S1P4 agonist value (EC50).

The nature of data set [1]: Evaluation of therapeutic index in rats: 5 or 14 day toxicology study, lung to body weight ratio. It counts as in vivo, Sprague-Dawley rat. To be noted: for Dose Resulting in 10% increase in lung weight: rats, oral, 5 or 14 consecutive days, interpolated from dose versus lung to body weight; for TI 14 days: therapeutic index: dose producing 10% lung weight increase / dose producing 50% T-cell depletion, 14 day toxicology study in rats. The method, then: All studies were conducted in non-fasted male and female Sprague-Dawely rats (Simonsen Laboratories). Rats were housed in an AAALAC accredited facility and the research was approved by the facilities Institutional Animal Care and Use Committee (IACUC). The animals were acclimated to the laboratory for at least 5 days prior to initiation of experiments.
The compounds listed in Table 6 were formulated as suspensions in a vehicle consisting of 0.5% carboxymethyl cellulose (Acros Organics) in purified water (pH adjusted to ˜2.2 with hydrochloric acid). The same formulation was used in the rat lymphopenia and toxicology studies described below. The concentration of each compound in suspension was verified to be within ±10% of the target concentration by HPLC-UV.
In the toxicology studies, three male and three female rats per group were assigned to dosing groups using body weight based randomization. A control group in each study received vehicle. All animals were dosed orally by gavage on 5 or 14-consecutive days at a dose volume of 5 mL/kg/day. The animals were observed daily for any manifestations of adverse effect. Twenty-four hours after the final study dose, the rats were anesthetized with isoflurane and a terminal blood sample was taken by intra-cardiac puncture for hematology and clinical chemistry evaluation (IDEXX Laboratories, Sacramento, Calif.). The lungs with trachea were collected, weighed, and then prepared for histology by perfusion with 10% neutral buffered formalin via the trachea. The internally fixed lungs were then preserved in 10% neutral buffered formalin and submitted for histological examination (IDEXX).
The dose of each compound resulting in a 10% increase in the lung to terminal body weight ratio was estimated for each compound by linear interpolation. The therapeutic index was estimated as the ratio of the dose producing 10% lung weight increase to the dose producing 50% T-Cell depletion.
The dose producing a 10% increase in lung to body weight ratio was interpolated from a plot of dose versus lung to body weight. The lymphopenia response was measured 24 hours following the final dose of a 3-5 day multiple dose regimen.

[2] abbreviates: S1P1 CRE-bla CHOK1, with Forskolin, read-out: S1P1 agonist value (EC50).
The mark [3] stands for this setting: agonist activity range, S1P1 CRE-bla CHOK1, 2 μM Forskolin, read-out: S1P1 ACTIVITY

Counter-ions that a name gives are not always drawn. Like-named read-outs stand apart in the source and are kept apart here. Bounds are passed on as bounds.

Sequence of S1P1/EDG1 (P21453 whole entry): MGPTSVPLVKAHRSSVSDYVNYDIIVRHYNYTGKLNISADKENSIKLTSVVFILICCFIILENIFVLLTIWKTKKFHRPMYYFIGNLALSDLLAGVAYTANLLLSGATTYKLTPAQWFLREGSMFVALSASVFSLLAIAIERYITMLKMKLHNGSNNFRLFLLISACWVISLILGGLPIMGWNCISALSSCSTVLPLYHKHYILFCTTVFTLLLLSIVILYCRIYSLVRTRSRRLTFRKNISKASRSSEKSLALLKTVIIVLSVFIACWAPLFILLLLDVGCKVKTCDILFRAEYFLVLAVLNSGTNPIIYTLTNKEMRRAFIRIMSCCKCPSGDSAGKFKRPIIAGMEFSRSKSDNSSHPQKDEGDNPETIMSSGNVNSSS
T1 sequence (O95136 whole entry, species assumed): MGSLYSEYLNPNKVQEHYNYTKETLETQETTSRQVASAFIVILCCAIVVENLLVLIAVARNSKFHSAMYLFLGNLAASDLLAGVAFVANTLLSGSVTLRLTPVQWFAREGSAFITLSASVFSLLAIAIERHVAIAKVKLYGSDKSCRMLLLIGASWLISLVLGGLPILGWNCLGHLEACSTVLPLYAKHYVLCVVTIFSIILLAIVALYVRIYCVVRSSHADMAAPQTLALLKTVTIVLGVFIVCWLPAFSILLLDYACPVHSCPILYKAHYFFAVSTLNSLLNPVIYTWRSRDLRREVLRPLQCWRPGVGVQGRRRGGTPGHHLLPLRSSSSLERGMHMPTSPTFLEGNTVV

`CC(C)Oc1ccc(-c2nc(-c3cccc4c3CC[C@H]4N)no2)cc1C#N` [Compound 49, (R)-5-(3-(1-amino-2,3-dihydro-1H-inden-4-yl)-1,2,4-oxadiazol-5-yl)-2-isopropoxy-benzonitrile hydrochloride]: the EC50 at S1P1/EDG1 (setting [2]) was 0.17 nM; on S1P1/EDG1 (setting [3]), 0.05 to 0.5 nM; at S1P2 it was 1.08 µM; at S1P4 it was 9.03 µM. Besides, the “Dose Resulting in 10% increase in lung weight” value (“Dose Resulting in 10% increase” below) in data set [1] came to 0.2 mg/kg. The “TI 14 days” value in data set [1] was determined as 2.
Take `CC(C)Oc1ccc(-c2nc(-c3cccc4c3CC[C@@H]4NCC(=O)N(C)C)no2)cc1C#N` [Compound 91, (S)-2-(4-(5-(3-cyano-4-isopropoxyphenyl)-1,2,4-oxadiazol-3-yl)-2,3-dihydro-1H-inden-1-ylamino)-N,N-dimethylacetamide]: the EC50 at S1P1/EDG1 (setting [2]) was 0.09 nM; at S1P1/EDG1 (setting [3]), 0.05 to 0.5 nM; on S1P2, greater than 10 µM; on S1P4, greater than 10 µM. Moreover, in data set [1], the “Dose Resulting in 10% increase” value was determined as 0.3 mg/kg. Further, the “TI 14 days” value in data set [1] stood at 1.
For the molecule `CC(C)Oc1ccc(-c2nc(-c3cccc4c3CC[C@H]4NCCO)no2)cc1C#N` [Compound 85, (R)-5-(3-(1-(2-hydroxyethylamino)-2,3-dihydro-1H-inden-4-yl)-1,2,4-oxadiazol-5-yl)-2-isopropoxybenzonitrile], the EC50 came to 5.69 µM at S1P2 and 1.61 µM at S1P4. Further, in data set [1], the “Dose Resulting in 10% increase” value is 2.8 mg/kg. Besides, the “TI 14 days” value in data set [1] came to 14.
As to `CC(C)Oc1ccc(-c2nc(-c3cccc4c3CC[C@@H]4N)no2)cc1C#N` [Compound 50, (S)-5-(3-(1-amino-2,3-dihydro-1H-inden-4-yl)-1,2,4-oxadiazol-5-yl)-2-isopropoxy-benzonitrile], the EC50 on S1P1/EDG1 (setting [2]) is 0.19 nM; at S1P1/EDG1 (setting [3]), 0.05 to 0.5 nM; on S1P2 it was 7.72 µM; at S1P4 it was 7.87 µM. In addition, in data set [1], the “Dose Resulting in 10% increase” value is on record as 2.0 mg/kg. Also, the “TI 14 days” value in data set [1] is 20.
In the case of `CC(C)Oc1ccc(-c2nc(-c3cccc4c3CC[C@H]4NCC(=O)N(C)C)no2)cc1C#N` [Compound 90, (R)-2-(4-(5-(3-cyano-4-isopropoxyphenyl)-1,2,4-oxadiazol-3-yl)-2,3-dihydro-1H-inden-1-ylamino)-N,N-dimethylacetamide hydrochloride], the EC50 on S1P1/EDG1 (setting [2]) was 0.13 nM; at S1P1/EDG1 (setting [3]), 0.05 to 0.5 nM; at S1P2 it was 6.66 µM; at S1P4, greater than 10 µM. Besides, the “Dose Resulting in 10% increase” value in data set [1] was found to be 5.5 mg/kg. Moreover, the “TI 14 days” value in data set [1] was found to be 14.
